Measurements from US20050124658A1, “Decahydronaphtho[2,3-c]furan derivatives” (Segami Chemical Research Center, priority 2001, published 2005).

SMILES	melting point [°C]
C=C1C2CCCCC2CC2C(OC)OCC12 (stereo not shown) [Example 8, Dodecahydro-1-methoxy-4-methylenenaphtho[2,3-c]furan]	53 to 55
COC1OCC2C(=O)C3CCCCC3CC12 (stereo not shown) [Example 7, Decahydro-1-methoxy-naphtho[2,3-c]furan-4(1H)-one]	78 to 79
COC1OCC2C1CC1CCCCC1C2COC(=O)c1ccc(Br)cc1 (stereo not shown) [Example 10, Dodecahydro-4-(4-bromophenyl)carboxymethyl-1-methoxynaphtho[2,3-c]furan]	107 to 108
O=C1OCC2C3OC(C4CCCCC43)C12 (stereo not shown)	90 to 91
O=C1OCC2C1CC1CCCCC1C2O (stereo not shown) [Example 5, Decahydro-4-hydoxy-naphtho[2,3-c]furan-1(3H)-one]	149 to 150
COC1OCC2C(O)C3CCCCC3CC12 (stereo not shown) [Example 6, Dodecahydro-1-methoxy-naphtho[2,3-c]furan-4-ol]	75 to 77
O=C1OCC2C3OC(C4=C3CCCC4)C12 (stereo not shown)	105 to 106
